Holding throughout (format): cell-based
Experiment [1] concerns Corynebacterium glutamicum strain R. Kind of experiment: Glucose consumption under presence of high concentration of protocatechuic acid. To be noted: high concentration of protocatechuic acid (0, 50, 250, 500 mM), 24-hour culture, 33° C. Here is the method:
As indicated in Reference Example 1, Corynebacterium glutamicum was able to grow even under the presence of a high concentration of protocatechuic acid. Then, a glucose consumption ability of Corynebacterium glutamicum under the presence of a high concentration of protocatechuic acid was further studied in the following manner.
Corynebacterium glutamicum strain R was applied to the above-described A-agar plate containing glucose 4%, and was cultured at 33° C. for 16 hours. One platinum loop of Corynebacterium glutamicum strain R grown on the above-described plate was inoculated in a test tube having therein 10 ml of the above-described A-liquid medium containing glucose 4%, and was subjected to aerobic shaking culture at 33° C. for 16 hours. Corynebacterium glutamicum strain R grown under the above-described conditions was inoculated in 10 ml of the above-described A-liquid medium containing glucose 4% so that the initial bacterial cell concentration OD610=0.2. Simultaneously, protocatechuic acid was added so that the final concentrations thereof became 0, 50, 250, 500 mM, and aerobic shaking culture was carried out at 33° C. After 24-hour culture, culture solutions were collected, and centrifuged (4° C., 15,000×g, 5 minutes). Concentrations of glucose in the supernatants obtained were measured by a glucose sensor in the same manner as Example 2 to be described below. […]

Experiment [2] deals with Bacillus subtilis strain NBRC14144. The experiment in a line: Inhibition by protocatechuic acid of growth in aerobic culture (OD610). The following applies: LB-liquid medium, aerobic shaking culture 37° C. The source says: (§1) In a case where a product that has cytotoxicity, such as protocatechuic acid, is produced by the fermentation process using microorganisms, it is important that a host microorganism has resistance against the product, that is, hardly suffers from growth inhibition by the product. Then, for studying the degree of resistance against protocatechuic acid of Corynebacterium glutamicum, which is preferable as a host microorganism in the present invention, in comparison with other microorganisms, studies were made on the inhibition by protocatechuic acid of the growth of Corynebacterium glutamicum, Escherichia coli, Bacillus subtilis, Pseudomonas putida, Rhodococcus erythropolis, and Saccharomyces cerevisiae in aerobic culture.
(§2) Further, Escherichia coli strain K12, Bacillus subtilis strain NBRC14144, Pseudomonas putida strain ATCC700801, and Rhodococcus erythropolis strain ATCC27854 were applied to LB-agar plate [containing 1% polypeptone, 0.5% yeast extract, 0.5% sodium chloride, and 1.5% agar]. Escherichia coli strain K12 and Bacillus subtilis strain NBRC14144 were cultured at 37° C. for 16 hours, while Pseudomonas putida strain ATCC700801 and Rhodococcus erythropolis strain ATCC27854 were cultured at 30° C. for 16 hours. Each strain grown on the plate described above was inoculated in 10 ml of LB-liquid medium [1% polypeptone, 0.5% yeast extract, and 0.5% sodium chloride]. Escherichia coli strain K12 and Bacillus subtilis strain NBRC14144 were subjected to aerobic shaking culture at 37° C. for 16 hours, while Pseudomonas putida strain ATCC700801 and Rhodococcus erythropolis strain ATCC27854 were subjected to aerobic shaking culture at 30° C. for 16 hours. Each strain grown under the above-described conditions was inoculated in 10 ml of the LB-liquid medium so that the initial bacterial cell concentration OD610=0.1, and simultaneously protocatechuic acid was added so that the final concentrations were 0, 25, 50, 100, 250, 500 mM. Escherichia coli strain K12 and Bacillus subtilis strain NBRC14144 were subjected to aerobic shaking culture at 37° C., while Pseudomonas putida strain ATCC700801 and Rhodococcus erythropolis strain ATCC27854 was subjected aerobic shaking culture at 30° C. The growth of bacterial cells was determined by measuring OD610.
(§3) How the addition of protocatechuic acid to medium influenced aerobic growth of each strain was analyzed, and the results are shown in FIG. 2.

Experiment [3] relates to Escherichia coli strain K12. Described as above. To be noted: LB-liquid medium, aerobic shaking culture 37° C.
Description: as §1, §2, §3

In experiment [4] the test system is Rhodococcus erythropolis strain ATCC27854. The experiment is described as above. To be noted: LB-liquid medium, aerobic shaking culture 30° C.
Description: as §1, §2, §3

For experiment [5], the system named is Pseudomonas putida strain ATCC700801. The experiment is described as above. To be noted: LB-liquid medium, aerobic shaking culture 30° C.
Description: as §1, §2, §3

In experiment [6] the test system is Corynebacterium glutamicum strain R. The experiment is described as above.
Description: as §1
Corynebacterium glutamicum strain R was applied to an A-agar plate [obtained by dissolving the following in distilled water 1 L: (NH2)2CO 2 g, (NH4)2SO4 7 g, KH2PO4 0.5 g, K2HPO4 0.5 g, MgSO4.7H2O 0.5 g, 0.06% (w/v) Fe2SO4.7H2O+0.042% (w/v) MnSO4.2H2O 1 ml, 0.02% (w/v) biotin solution 1 ml, 0.01% (w/v) thiamine solution 2 ml, yeast extract 2 g, vitamin assay casamino acid 7 g, agar 20 g] containing glucose at 4%, and was cultured at 33° C. for 16 hours. […] The growth of bacterial cells was determined by measuring OD610.
as §3

Experiment [7] relates to Saccharomyces cerevisiae strain NBRC2376. Described as above. The following applies: YPD liquid medium, aerobic shaking culture 30° C.
Description: as §1
Further, Saccharomyces cerevisiae strain NBRC2376 was applied to YPD agar plate [2% polypeptone, 1% yeast extract, 2% glucose, and 1.5% agar], and was cultured at 30° C. for 16 hours. Saccharomyces cerevisiae strain NBRC2376 on the plate described above was inoculated in YPD liquid medium [2% polypeptone, 1% yeast extract, and 2% glucose], and was subjected to aerobic shaking culture at 30° C. for 16 hours. […] The growth of bacterial cells was determined by measuring OD610.
as §3

`O=C(O)c1ccc(O)c(O)c1` [protocatechuic acid]: the “decrease in the saccharide consumption by Corynebacterium glutamicum” value in experiment [1] is listed as “small”. Further, the “growth of Bacillus subtilis strain NBRC14144” value in experiment [2] (250 mM protocatechuic acid) is listed as “significantly inhibited”; in experiment [2] (500 mM protocatechuic acid), “substantially completely inhibited”. The “growth of Escherichia coli strain K12” value is on record as “significantly inhibited” in experiment [3] (100 mM protocatechuic acid) and “substantially completely inhibited” in experiment [3] (250 mM protocatechuic acid). In addition, the “growth of Rhodococcus erythropolis strain ATCC27854” value in experiment [4] (250 mM protocatechuic acid) was “strongly inhibited”; in experiment [4] (500 mM protocatechuic acid), “substantially completely inhibited”. Besides, the “growth of Pseudomonas putida strain ATCC700801” value in experiment [5] (100 mM protocatechuic acid) is “strongly inhibited”; in experiment [5] (250 mM protocatechuic acid), “substantially completely inhibited”. Besides, the “growth capacity of Corynebacterium glutamicum” value in experiment [6] (500 mM protocatechuic acid) is listed as “robust growth capacity”. Besides, in experiment [6] (250 to 500 mM of protocatechuic acid, A-liquid medium with glucose 4%, aerobic shaking culture 33° C.), the “growth of Corynebacterium glutamicum strain R” value was “robust growth”. For the same compound, the entries for the “growth of Saccharomyces cerevisiae strain NBRC2376” value in experiment [7] (250 mM protocatechuic acid) and in experiment [7] (500 mM protocatechuic acid) were “inhibited” and “significantly inhibited”, respectively.

(Values after US10961526B2, “Transformant, and method for producing protocatechuic acid or salt thereof using same” (RESEARCH INSTITUTE OF INNOVATIVE TECHNOLOGY FOR THE EARTH, priority 2016, dated 2021).)
